We go through 1 molecule from US20090076131A1, “Anti-Cancer and Anti-Inflammatory Effects of Annurca Apple Extracts and Compositions Purified Therefrom” (BAYLOR RESEARCH INSTITUTE, priority 2007, published 2009).

One experiment deals with p16^INK4a. The experiment can be described thus: mRNA expression by conventional RT-PCR. The format is cell-based, Human. As for the experimental part:
(§1) Conventional RT-PCR was also performed to assess the mRNA expression of p14^ARF 27, p16^INK4a 28, hMLH1^29, DNMT-1^30 and DNMT-3b^31. cDNA was generated with random hexamers using 2 μg of RNA. The PCR was performed as previously reported^32. β-actin was used as an endogenous control. The statistical significance of differences between the experimental points or between groups was analyzed using Student's t-test; and differences were considered significant when P<0.05.

In another experiment the test system is p14^ARF. Put plainly: mRNA expression by conventional RT-PCR. The format is cell-based, Human. The procedure: as §1

Each structure is given as a SMILES string.

With `Nc1ncn([C@H]2C[C@H](O)[C@@H](CO)O2)c(=O)n1` [5-aza-2dC, 5-aza-2′deoxycytidine], the “p16^INK4a RNA transcripts” value is on record as “re-expression” in the experiment with p16^INK4a (RKO) and “appearance of RNA transcripts” in the experiment on p16^INK4a (SW48 cells). For the same molecule, the results for the “p14^ARF RNA transcripts” value in the experiment with p14^ARF (RKO) and in the experiment on p14^ARF (SW48 cells) were “re-expression” and “appearance of RNA transcripts”, respectively.
